Consider one compound from patent US20250034168A1, “NITROGEN-CONTAINING HETEROCYCLIC DERIVATIVE PARP INHIBITOR AND USE THEREOF” (XIZANG HAISCO PHARMACEUTICAL CO., LTD., priority 2021, published 2025).

Data set [1] is described as follows: Pharmacokinetic test in mice. In kind it is in vivo, ICR mice. Here is the method:
• 5.2.1 Experimental animals: male ICR mice, 20-25 g, 18 mice/compound. purchased from Chengdu Ddossy Experimental Animals Co., Ltd. • 5.2.2 Experimental design: on the day of the test, 18 ICR mice were randomly grouped according to their body weights. the animals were fasted with water available for 12 to 14 h one day before the administration, and were fed 4 h after the administration.
Before and after the administration, 0.06 mL of blood was taken from the orbit of the animals under isoflurane anesthesia and placed in an EDTAK2 centrifuge tube. The blood was centrifuged at 5000 rpm and 4° C. for 10 min to collect plasma. The blood collection time points for the intravenous group and intragastric administration group were: 0 min, 5 min, 15 min, 30 min, 1 h, 2 h, 4 h, 6 h, 8 h, and 24 h. Before analysis and detection, all samples were stored at −80° C., and a quantitative analysis of samples was performed using LC-MS/MS.

Another data set deals with MDA-MB-231 cells. The data set is described as follows: MDA-MB-231 cell proliferation inhibition test. In kind it is cell-based. Particulars: Homo sapiens. How it is done:
Human breast cancer MDA-MB-231 cells purchased from ATCC were placed in complete DMEM medium (supplemented with 10% fetal bovine serum and 1% double antibody) and cultured at 37° C. and 5% CO2. The cells in the exponential growth phase were collected, and the cell suspension was adjusted to 1500 cells/135 μL with the culture medium. 135 μL of the cell suspension was added to each well of a 96-well cell culture plate and incubated overnight. On day 2, compounds at different concentrations were added, and the plate was placed in the incubator and incubated for 7 days. After the incubation was completed, according to operation instructions for a CellTiter-Glo kit (Promega, Cat #G7573), 75 μL of CTG solution, which was already pre-melted and equilibrated to room temperature, was added to each well, and the mixture was uniformly mixed for 2 min using a microplate shaker. The plate was placed at room temperature for 10 min, and then […] signal values were measured using an Envision 2104 plate reader (PerkinElmer). The cell proliferation inhibition rate was calculated according to the formula [(1−(RLUcompound−RLUblank)/(RLUcontrol−RLUblank))×100%]. The IC50 value was obtained by four-parameter nonlinear fitting using GraphPad Prism software.

The nature of data set [2]: Pharmacokinetic test in rats. The data set is classed as in vivo, SD rats. How it is done: • 5.1.1 Experimental animals: male SD rats, about 220 g, 6-8 weeks old, 6 rats/compound, purchased from Chengdu Ddossy Experimental Animals Co., Ltd. • 5.1.2 Experimental design: on the day of the test, 6 SD rats were randomly grouped according to their body weight; the animals were fasted with water available for 12 to 14 h one day before the administration, and were fed 4 h after the administration.
Before and after the administration, 0.15 ml of blood was taken from the orbit of the animals under isoflurane anesthesia and placed in an EDTAK2 centrifuge tube. The blood was centrifuged at 5000 rpm and 4° C. for 10 min to collect plasma. The blood collection time points for the intravenous administration group and intragastric administration group were: 0, 5 min, 15 min, 30 min, 1 h, 2 h, 4 h, 6 h, 8 h, and 24 h. Before analysis and detection, all samples were stored at −80° C., and a quantitative analysis of samples was performed using LC-MS/MS.

In data set [3] the test system is MDA-MB-436 subcutaneous transplanted tumor. Kind of data set: Mouse MDA-MB-436 subcutaneous in vivo transplanted tumor model. Set-up: species or system BALB/c nude mice. Here is the method: Human breast cancer MDA-MB-436 cells were placed in Leibovitz's L-15 medium (supplemented with 10 μg/mL insulin, 16 μg/mL glutathione, 10% fetal bovine serum and 1% double antibody) and cultured at 37° C. Conventional digestion treatment with trypsin was carried out twice a week for passage. When the cell saturation was 80%-90%, and the number reached the requirement, the cells were collected, counted, and inoculated. BALB/c nude mice (from Beijing Vital River Laboratory Animal Technology Co., Ltd.) were subcutaneously inoculated with 0.2 mL (10×10^6) of MDA-MB-436 cells (plus matrigel, with the volume ratio of 1:1) on the right back. When the average tumor volume reached about 180 mm^3, grouping and administration were performed (marked as Day 0). The solvent group was given 5% DMSO, 30% PEG400 and 65% of 20% sulfobutyl-β-cyclodextrin solution, and the administration group was given compound 14 (Day 0-Day 10:1 mg/kg; Day 11-Day 28:0.1 mg/kg). The administration frequency was once a day, the administration cycle was 29 days, and the drug withdrawal observation period was set to 14 days. After grouping, the tumor diameter was measured twice a week with a vernier caliper. The formula for calculating the tumor volume was: V=0.5×a×b^2, where a and b represented the long and short diameters of the tumor, respectively. The tumor inhibitory effect of compound 14 was evaluated by TGI (%)=[(1−(average tumor volume at the end of administration in the treatment group−average tumor volume at the beginning of administration in the treatment group))/(average tumor volume at the end of treatment in the solvent control group−average tumor volume at the beginning of treatment in the solvent control group)]×100%. The tumor growth curve and the animal body weight change curve were as shown in FIG. 1 and FIG. 2, respectively.

The mark [4] stands for this setting: male, ICR, iv, mouse plasma, i.v. 2.5 mg/kg.
[5] abbreviates: male, Sprague-Dawley, iv, rat plasma, i.v. 2.5 mg/kg.

As a reminder, the AUC(0-t) is the area under the concentration-time curve up to a stated or last time point. The clearance is a measure of how efficiently the substance is removed, as volume per time. A lower clearance goes with inefficient removal. In general, IC50 refers to the concentration that inhibits the measured activity by half. With `CCc1cc2ncc(CN3CC=C(c4ccc(C(=O)NC)nc4)CC3)cc2[nH]c1=O` [Compound 14, 1′-((7-ethyl-6-oxo-5,6-dihydro-1,5-naphthyridin-3-yl)methyl)-N-methyl-1′,2′,3′,6′-tetrahydro-[3,4′-bipyridine]-6-carboxamide], the AUC(0-t) in data set [1] (setting [4]) was determined as 220 µg·h/mL; in data set [1] (male, ICR, po, mouse plasma, i.g. 10 mg/kg), 829 µg·h/mL; in data set [2] (setting [5]), 84.2 µg·h/mL; in data set [2] (male, Sprague-Dawley, po, rat plasma, i.g. 10 mg/kg) it was 248 µg·h/mL. For the same compound, the clearance in data set [1] (setting [4]) came to 0.164 mL/min/kg; in data set [2] (setting [5]), 0.494 mL/min/kg. In addition, the Vd in data set [1] (male, ICR, iv, mouse plasma, i.v. 2.5 mg/kg, read-out: Vdss) worked out at 0.112 L/kg; in data set [2] (male, Sprague-Dawley, iv, rat plasma, i.v. 2.5 mg/kg, read-out: Vdss), 0.164 L/kg. In addition, the F in data set [1] (mouse, i.g. 10 mg/kg) was determined as 94.3%; in data set [2] (rat, i.g. 10 mg/kg), 73.8%. Further, the IC50 with MDA-MB-231 cells (MDA-MB-231, 168 h, BRCA WT cells, 7 days incubation, CellTiter-Glo, read-out: MDA-MB-231 cell inhibitory activity IC50) is 21.8 µM. Further, the inhibition at 10 µM in the data set on MDA-MB-231 cells (MDA-MB-231 cells, 10 μM, read-out: Max inh. % 10 μM) stood at 59.2%. Moreover, the “body weight of the animals” value in data set [3] (Day 0-Day 10: 1 mg/kg, Day 11-Day 28: 0.1 mg/kg, once a day) was “no significant decrease”. The TGI in data set [3] (after 28 days of administration, Day 0-Day 10: 1 mg/kg, Day 11-Day 28: 0.1 mg/kg, once a day) amounted to 121%. For the same compound, the “tumor growth after drug withdrawal” value in data set [3] (drug withdrawal observation period 14 days) is recorded as “did not grow again”.
